In PMC5456363 (PLoS ONE, 2017):
Non-standard residues stand in square brackets, D forms with d. Residues, ends and D or L forms follow the SMILES beside them.

What was measured:
thrombin = test system: thrombin; design: method as in PMID 18665823; conditions: recalcified citrated plasma; cited from earlier work
[1] = Peptide stability in fresh blood taken by cardiac puncture into a syringe containing the peptide (blood, B); format: in vitro ADME, CD-1 mice; conditions: blood, 1 h
Description: (§1) All stability tests were performed at least in triplicates.

[2] = Peptide stability in commercial serum (CS); format: in vitro ADME, mouse
Description: as §1

human α-thrombin = biological target: T1, human α-thrombin (Homo sapiens, UniProt P00734); test: α-Thrombin stability assay; format: in vitro ADME; conditions: cleavage C-terminal to Arg4; 0, 1, and 24 hours
T1 construct: with human α-Thrombin for 0, 1, and 24 hours
Description: Supplementary file pone.0178943.s003.tif: S3 Fig Stability of Api88, Api137, and LVPR-Onc112 against human α-thrombin. Chromatograms recorded after incubation of Api88 (a), Api137 (b), or LVPR-Onc112 (c) with human α-Thrombin for 0, 1, and 24 hours (UV absorbance). […] (TIF) Click here for additional data file.
S1 Text. Method α-Thrombin stability assay.

[3] = design: method as in PMID 27067364; conditions: 25% aqueous commercial serum; cited from earlier work
[4] = Stability and metabolites across fresh blood, serum and plasma (all six matrices); conditions: for Overall stability / Sequential stability: fresh blood, serum, and plasma
Description: Aqueous peptide solutions (3 g/L) were filled in a sterile syringe (1 mL, Dispomed Witt oHG, Gelnhausen, Deutschland) through the front end, the stainless-steel needle was attached, and blood (200 to 300 μL) was collected via cardiac puncture to obtain a peptide concentration of approximately 31,5 μmol/L. The syringe was carefully disconnected from the needle and sealed while keeping the needle in the heart. A second empty syringe was attached to the needle and 0.5 to 0.8 mL blood were collected. In parallel, the sealed syringe was gently shaken for one minute to mix the peptide solution with blood and further incubated on a Stuart Rotator SB3 (Barloworld, Scientific LTD, Stone, Staffordshire, U.K.) placed in an incubator at 37°C. […] The plasma sample designated as “blood” (B) was precipitated with trichloroacetic acid (TCA), as described below. Blood collected in the second syringe was transferred to a polypropylene tube (Eppendorf AG, Hamburg, Germany) and a BD Microtainer® serum separator tube (SST; Becton, Dickinson and Company). Polypropylene tubes were centrifuged immediately (12,000 x g, 2 to 4 min) to obtain “direct serum” (DS) as supernatant, whereas the serum separator tubes were incubated (room temperature, 1 h), centrifuged (12,000 x g, 2 min), and collected as “activated serum” (AS). Pooled mouse serum was purchased from PAA Laboratories GmbH (Pasching, Austria) and pooled CD-1 mouse plasma containing K2EDTA or lithium heparin were obtained from Innovative Research (Novi, MI, USA).
Peptides were mixed with serum or plasma to a final concentration of 31.5 μmol/L and incubated (37°C, 750 rpm; Thermomixer, Eppendorf AG, Hamburg, Germany). Aliquots (20 or 40 μL) taken after 0 and 60 min (0, 10 and 30 min for Api88) were mixed with TCA to obtain a final concentration of 3% (w/v) and incubated on ice (10 min). After centrifugation (12,000 x g, 5 min), the supernatant was neutralized with sodium hydroxide (1 mol/L) and stored at −20°C. Samples were analyzed by RP-HPLC on a Jupiter C18-column (internal diameter: 2 mm, length: 150 mm, particle size: 5 μm, pore size: 30 nm) using a linear aqueous acetonitrile gradient containing TFA (0.1%, v/v) as ion pair reagent. Peptides were detected by recording the absorbance at 214 nm and quantified by their peak areas relative to the initial peak areas (0 min). All stability tests were performed at least in triplicates.
Metabolites were identified on an Agilent 1100 LC system (Agilent Technologies, Santa Clara, CA, USA) coupled on-line via a UV-detector (absorbance recorded at 214 nm) to the electrospray ionization source on an ion trap mass spectrometer (ESI-IT-MS, Esquire HCT, Bruker Daltonics GmbH, Bremen, Germany). Samples were separated on an Aqua C18-column (inner diameter: 2 mm, length: 150 mm, particle size: 3 μm, pore size: 12.5 nm, Phenomenex; column temperature: 60°C) at a flow rate of 0.2 mL/min using a linear gradient of aqueous acetonitrile in the presence of formic acid (FA; 0.1%, v/v) as ion pair reagent. […] The ESI-IT-MS was operated in positive ion mode. Ionization was carried out at 365°C (source temperature) using nitrogen as curtain gas (40 psi) and dry gas (9 L/min). Mass spectra were acquired for an m/z range from 400 to 1300 at a scan rate of 8100 m/z-units per second in standard enhanced mode.

[5] = Peptide stability in direct serum (DS); format: in vitro ADME, CD-1 mice; conditions: 37°C, 1 h, 31.5 μmol/L
Description: as §1

[6] = Peptide stability in activated serum (AS); format: in vitro ADME, CD-1 mice; conditions: 37°C, 1 h, 31.5 μmol/L
Description: as §1

[7] = Peptide stability in heparin plasma (HP); format: in vitro ADME, CD-1 mouse; conditions: 37°C, 1 h, 31.5 μmol/L
Description: as §1

[8] = Peptide stability in EDTA plasma (EP); format: in vitro ADME, CD-1 mouse; conditions: 37°C, 1 h, 31.5 μmol/L
Description: as §1

[9] = intravenous application in mice; cited from earlier work
[10] = mouse serum; cited from earlier work

Molecule: O=C(O)CN(CCN(CC(=O)O)CC(=O)O)CC(=O)O [EDTA, ethylenediaminetetraacetic acid]
- thrombin reactivated in presence of the anticoagulant (thrombin): 0.39 U/mL

Molecule: CC[C@H](C)[C@H](NC(=O)[C@@H](CCCNC(=N)N)NC(=O)[C@H](CCCNC(=N)N)NC(=O)[C@@H]1CCCN1C(=O)[C@@H]1CCCN1C(=O)[C@H](CCCNC(=N)N)NC(=O)[C@@H]1CCCN1C(=O)[C@H](CCCNC(=N)N)NC(=O)[C@@H]1CCCN1C(=O)[C@H](CC(C)C)NC(=O)[C@H](Cc1ccc(O)cc1)NC(=O)[C@@H]1CCCN1C(=O)[C@@H]1CCCN1C(=O)[C@H](CCCCN)NC(=O)[C@H](CC(=O)O)NC(=O)[C@@H](NC(=O)[C@H](CCCNC(=N)N)NC(=O)[C@@H]1CCCN1C(=O)[C@@H](NC(=O)[C@@H](N)CC(C)C)C(C)C)C(C)C)C(=O)N[C@@H](Cc1ccc(O)cc1)C(=O)N[C@@H](CC(N)=O)C(=O)N[C@H](CCCNC(=N)N)C(N)=O [LVPR-Onc112, LVPRVDKPPYLPRPRPPRrIYNr-NH2] (H-LVPRVDKPPYLPRPRPPR[dR]IYN[dR]-NH2)
- remaining at 1 h ([1]; CD-1, mouse, fresh whole blood, 37°C, 31.5 μmol/L, read-out: intact peptide remaining relative to time zero): 67 ± 4%
- sum of prodrug and released Onc112 relative to initial amount [1]: 85%
- prodrug expected to be present in full serum ([2]; extrapolated from 25% serum data assuming three-fold faster degradation in full serum): 14%
- hydrolysis by thrombin compared with Api88 (human α-thrombin): slower
- Onc112 released from linker peptide [3]: 57%
- sum of prodrug and released Onc112 relative to initial amount ([4]; all matrices except for blood, 1 h): ~100%
- Overall stability [4]: Low
- Sequential stability [4]: Blood > Serum > Plasma

Molecule: CC[C@H](C)[C@H](NC(=O)[C@@H](CCCNC(=N)N)NC(=O)[C@H](CCCNC(=N)N)NC(=O)[C@@H]1CCCN1C(=O)[C@@H]1CCCN1C(=O)[C@H](CCCNC(=N)N)NC(=O)[C@@H]1CCCN1C(=O)[C@H](CCCNC(=N)N)NC(=O)[C@@H]1CCCN1C(=O)[C@H](CC(C)C)NC(=O)[C@H](Cc1ccc(O)cc1)NC(=O)[C@@H]1CCCN1C(=O)[C@@H]1CCCN1C(=O)[C@H](CCCCN)NC(=O)[C@H](CC(=O)O)NC(=O)[C@@H](N)C(C)C)C(=O)N[C@@H](Cc1ccc(O)cc1)C(=O)N[C@@H](CC(N)=O)C(=O)N[C@H](CCCNC(=N)N)C(N)=O [Onc112, VDKPPYLPRPRPPRrIYNr-NH2] (H-VDKPPYLPRPRPPR[dR]IYN[dR]-NH2)
- intact peptide remaining relative to time zero ([1]; 37°C, 31.5 μmol/L): at least 96%
- intact peptide remaining relative to time zero [5]: at least 96%
- intact peptide remaining relative to time zero [6]: at least 96%
- metabolised at 1 h, 31.5 μmol/L ([2]; mouse, commercial pooled serum, commercial serum, 1 hour, read-out: peptide degraded): < 2%
- intact peptide remaining relative to time zero [7]: at least 96%
- intact peptide remaining relative to time zero [8]: at least 96%
- plasma levels relative to Onc72 [9]: around fivefold
- serum half-life time [10]: more than 8 h
- Matrix in which the metabolite was identified ([4]; LC-MS, peak area at least 1% of initially incubated peptide, B blood, DS direct serum, AS activated serum, CS commercial serum, EP EDTA plasma, HP heparin plasma, All = all six): All
- Overall stability [4]: High
- Sequential stability [4]: Blood = Plasma = Serum

Molecule: heparin
- thrombin reactivated in presence of the anticoagulant (thrombin): 0.06 U/mL
